{"source": "patent US9023789B2", "about": "“Amylin analogs and pharmaceutical compositions thereof” (Novo Nordisk A/S, priority 2012, dated 2015)", "key": {"[1]": {"target": "T1, human amylin receptor (membranes from Amylin 3(a)/CRE-luc cells) (Homo sapiens, UniProt O60896+P30988)", "T1 construct": "expressed in transfected cells", "T1 sequence (P30988 25-474)": "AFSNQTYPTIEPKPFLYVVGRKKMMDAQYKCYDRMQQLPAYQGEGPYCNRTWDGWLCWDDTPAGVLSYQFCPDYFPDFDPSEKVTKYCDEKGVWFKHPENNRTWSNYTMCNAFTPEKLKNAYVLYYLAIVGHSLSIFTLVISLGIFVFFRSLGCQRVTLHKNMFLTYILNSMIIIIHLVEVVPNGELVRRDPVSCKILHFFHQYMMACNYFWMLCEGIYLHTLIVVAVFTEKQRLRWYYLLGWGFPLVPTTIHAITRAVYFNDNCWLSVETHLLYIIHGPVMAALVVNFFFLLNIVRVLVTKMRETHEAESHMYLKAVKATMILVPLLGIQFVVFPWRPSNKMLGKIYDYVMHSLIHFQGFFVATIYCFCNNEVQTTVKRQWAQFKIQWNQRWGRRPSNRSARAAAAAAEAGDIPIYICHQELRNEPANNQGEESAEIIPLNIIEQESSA", "T1 sequence (O60896 24-148 partner)": "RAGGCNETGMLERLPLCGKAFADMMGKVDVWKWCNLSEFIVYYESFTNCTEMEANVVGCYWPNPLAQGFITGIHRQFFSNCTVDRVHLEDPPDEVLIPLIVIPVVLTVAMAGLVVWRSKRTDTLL", "experiment": "ASSAY (V) binding to the human amylin receptor (SPA, 125I-rat amylin);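 further: competition binding of cell membranes (35 ng/µL) mixed with SPA beads in 384-well plates at 40 µL total volume, read by scintillation counting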", "details": "for pIC50: Table 4, read-out: hAmylin-R bind IC50"}, "[2]": {"target": "T2, human amylin 3(a) receptor (human calcitonin receptor + RAMP-3) in BHK570 cells (Homo sapiens, UniProt O60896+P30988)", "T2 construct": "expressed in transfected cells", "experiment": "ASSAY (II)a functional assay, human amylin receptor (CRE luciferase)", "assay_type": "cell-based", "details": "for pEC50: human amylin receptor functional potency, assay (II), read-out: hAmylin-R funct. EC50", "summary_of_the_method": "(§1)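 Readout is luminescence from a cAMP-responsive CRE-luc reporter, developed with LucLite for 30 min at room temperature. Cells were treated for 3 h at 37 °C in 10% FBS/DMEM buffered with 10 mM Hepes (pH 7.4).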"}, "[3]": {"target": "T3, human calcitonin (a) receptor in BHK570 cells (Homo sapiens, UniProt P30988)", "T3 construct": "expressed in transfected cells", "T3 sequence (P30988 25-474)": "T1 sequence (P30988 25-474)", "experiment": "ASSAY (II)a functional assay, human calcitonin receptor (CRE luciferase)", "assay_type": "cell-based", "details": "read-out: hCTR funct. EC50", "summary_of_the_method": "as §1"}, "[4]": {"target": "T4, human calcitonin receptor (Homo sapiens, UniProt P30988)", "T4 construct": "expressed in transfected cells", "T4 sequence (P30988 25-474)": "T1 sequence (P30988 25-474)", "experiment": "ASSAY (VII) binding to the human calcitonin receptor (SPA, 125I-Calcitonin)", "details": "read-out: hCTR bind IC50"}, "[5]": {"details": "Table 5, selectivity, hCTR bind IC50 / hAmylin-R bind IC50"}, "[6]": {"details": "Table 7, human binding selectivity, included for comparison"}, "[7]": {"details": "hCTR funct. EC50 / hAmylin-R funct. EC50"}, "[8]": {"details": "hCTR funct. EC50 divided by hAmylin-R funct. EC50"}, "[9]": {"details": "hCTR funct. EC50 over hAmylin-R funct. EC50"}, "[10]": {"details": "human functional selectivity: hCTR funct. EC50 / hAmylin-R funct. EC50"}}, "note": "pEC50, pIC50: −log10 of the molar value. Numbered stars: 1 amine (or outer) side, 2 acyl side, 3 side chain; on linkers, the order of the positions; unused ones are H or OH. Bridge positions count the residues as written; N and C are the ends. Peptide text beside a SMILES is read from it. * marks the point of attachment. C20 diacid = O=C(O)CCCCCCCCCCCCCCCCCCC(=O)*; γGlu = O=C(O)[C@H](CCC(=O)[*:2])N[*:1]; AEEA = NCCOCCOCC(=O)O;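 on hCTR bind IC50: cell membranes (35 ng/µL) combined with SPA beads in 40 µL of pH 7.4 Hepes buffer, 384-well format, signal counted on a TopCounter instrument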", "data": [{"smiles": "CC[C@H](C)[C@H](NC(=O)[C@H](C)NC(=O)CNC(=O)[C@H](Cc1ccccc1)NC(=O)[C@H](CC(N)=O)NC(=O)[C@@H]1CCCN1C(=O)[C@H](CO)NC(=O)[C@H](CO)NC(=O)[C@H](Cc1c[nH]cn1)NC(=O)[C@H](CCCNC(=N)N)NC(=O)[C@H](CC(C)C)NC(=O)[C@H](Cc1ccccc1)NC(=O)[C@H](CCC(=O)O)NC(=O)[C@H](C)NC(=O)[C@H](CC(C)C)NC(=O)[C@H](CCCNC(=N)N)NC(=O)[C@H](CCC(N)=O)NC(=O)[C@@H](NC(=O)[C@H](C)NC(=O)[C@@H]1CSSC[C@H](NC(=O)[C@H](CCCCN)NC(=O)CC[C@H](NC(=O)CCCCCCCCCCCCCCCCCCC(=O)O)C(=O)O)C(=O)N[C@@H](CC(N)=O)C(=O)N[C@@H]([C@@H](C)O)C(=O)N[C@@H](C)C(=O)N[C@@H]([C@@H](C)O)C(=O)N1)[C@@H](C)O)C(=O)N1CCC[C@H]1C(=O)N[C@@H](CO)C(=O)N[C@@H](CO)C(=O)N[C@H](C(=O)N[C@@H](CC(N)=O)C(=O)N[C@H](C(=O)NCC(=O)N[C@@H](CO)C(=O)N[C@@H](Cc1c[nH]cn1)C(=O)N[C@H](C(=O)N[C@@H](Cc1ccc(O)cc1)C(N)=O)[C@@H](C)O)C(C)C)[C@@H](C)O", "note": "[Example 18] ({C20 diacid-γGlu}-KCNTATCATQRLAEFLRHSSPNFGAIPSSTNVGSHTY-NH2; disulfide 2-7)", "values": [{"measurement": "pIC50", "setting": "[1]", "result": 9.26}, {"measurement": "Ratio hCT/hAmylin binding", "setting": "[1]; [5]", "result": 9.2}, {"measurement": "Ratio hCT/hAmylin binding", "setting": "[1]; [6]", "result": 9.2}, {"measurement": "Ratio hCT/hAmylin binding", "setting": "[1]; Table 7a (preferred compounds), human binding selectivity, included for comparison", "result": 9.2}, {"measurement": "Ratio hCT/hAmylin funct.", "setting": "[2]; [7]", "result": 4.8}, {"measurement": "Ratio hCT/hAmylin funct.", "setting": "[2]; [8]", "result": 4.8}, {"measurement": "Ratio hCT/hAmylin funct.", "setting": "[2]; [9]", "result": 4.8}, {"measurement": "pEC50", "setting": "[2]", "result": 9.81}, {"measurement": "Ratio hCT/hAmylin funct.", "setting": "[2]; [10]", "result": 4.8}, {"measurement": "pEC50", "setting": "[3]", "result": 9.13}, {"measurement": "pIC50", "setting": "[4]", "result": 8.29}]}, {"smiles": "CC[C@H](C)[C@H](NC(=O)[C@H](C)NC(=O)CNC(=O)[C@H](Cc1ccccc1)NC(=O)[C@H](CC(N)=O)NC(=O)[C@@H]1CCCN1C(=O)[C@H](CO)NC(=O)[C@H](CO)NC(=O)[C@H](Cc1c[nH]cn1)NC(=O)[C@H](CCCNC(=N)N)NC(=O)[C@H](CC(C)C)NC(=O)[C@H](Cc1ccccc1)NC(=O)[C@H](CCC(=O)O)NC(=O)[C@H](C)NC(=O)[C@H](CC(C)C)NC(=O)[C@H](CCCNC(=N)N)NC(=O)[C@H](CCC(N)=O)NC(=O)[C@@H](NC(=O)[C@H](C)NC(=O)[C@@H]1CSSC[C@H](NC(=O)[C@H](CCCCN)NC(=O)COCCOCCNC(=O)COCCOCCNC(=O)CC[C@H](NC(=O)CCCCCCCCCCCCCCCCCCC(=O)O)C(=O)O)C(=O)N[C@@H](CC(N)=O)C(=O)N[C@@H]([C@@H](C)O)C(=O)N[C@@H](C)C(=O)N[C@@H]([C@@H](C)O)C(=O)N1)[C@@H](C)O)C(=O)N1CCC[C@H]1C(=O)N[C@@H](CO)C(=O)N[C@@H](CO)C(=O)N[C@H](C(=O)N[C@@H](CC(N)=O)C(=O)N[C@H](C(=O)NCC(=O)N[C@@H](CO)C(=O)N[C@@H](CC(N)=O)C(=O)N[C@H](C(=O)N1CCC[C@H]1C(N)=O)[C@@H](C)O)C(C)C)[C@@H](C)O", "note": "[Example 20] ({C20 diacid-γGlu-AEEA-AEEA}-KCNTATCATQRLAEFLRHSSPNFGAIPSSTNVGSNTP-NH2; disulfide 2-7)", "values": [{"measurement": "pIC50", "setting": "[1]", "result": 9.66}, {"measurement": "Ratio hCT/hAmylin binding", "setting": "[1]; [5]", "result": 3.6}, {"measurement": "Ratio hCT/hAmylin binding", "setting": "[1]; [6]", "result": 3.6}, {"measurement": "Ratio hCT/hAmylin funct.", "setting": "[2]; [7]", "result": 3.6}, {"measurement": "Ratio hCT/hAmylin funct.", "setting": "[2]; [8]", "result": 3.6}, {"measurement": "Ratio hCT/hAmylin funct.", "setting": "[2]; [9]", "result": 3.6}, {"measurement": "pEC50", "setting": "[2]", "result": 10.10}, {"measurement": "Ratio hCT/hAmylin funct.", "setting": "[2]; [10]", "result": 3.6}, {"measurement": "pEC50", "setting": "[3]", "result": 9.55}, {"measurement": "pIC50", "setting": "[4]", "result": 9.10}]}]}
